The results in this text go back to patent US20170096443A1, “PLATINUM(IV) COMPOUNDS AND METHODS OF MAKING AND USING SAME” (UNIVERSITY OF GEORGIA RESEARCH FOUNDATION, INC., priority 2014, published 2017).

In one assay the test system is PC3 cells. Description: MTT cytotoxicity assay in PC3 cells. To be noted: 72 hours incubation, read-out: IC50 in prostate cancer cells, PC3. Type of assay: cell-based, Human. As to the method: (§1) Cisplatin and ADIBO-COOH were used as controls. […] Cell Lines and Cell Culture. […] Cytotoxicity Analysis of Platin-CLK by MTT Assay. […] The media was changed and increasing concentrations of each compound was added. […] Final working solutions were prepared in culture media (RPMI) by keeping total DMSO percentage <1%. These were then incubated for 72 hours. […] The IC50 values were reported at ±99% confidence intervals.

For a further assay, the system named is DU145 cells. As to the kind of experiment: MTT cytotoxicity assay in DU145 cells. Type of assay: cell-based, Human. To be noted: 72 hours incubation, read-out: IC50 in prostate cancer cells, DU145. As to the method: as §1

Bounds are passed on as bounds.

Take `N.N.[Cl][Pt][Cl]` [Cisplatin, Cis-diamminedichloroplatinum(II)]: the IC50 with PC3 cells was found to be 12 ± 2 µM; with DU145 cells, 6 ± 0.9 µM.
With `O=C(O)CCC(=O)NCCC(=O)N1Cc2ccccc2C#Cc2ccccc21` [ADIBO-COOH], the results for the IC50 in the assay on PC3 cells and in the assay with DU145 cells were over 200 µM and 284 ± 72 µM, respectively.
